# Experimental data reported in patent publication US6579693B1, “Genetically engineered yeast strains” (Aventis Pharma S.A., priority 1995, dated 2003).
# T1: P450 cytochrome 1A1 (Homo sapiens, UniProt P04798)
# T1 construct: made in house; host or cells: Saccharomyces cerevisiae W303-derived strains, e.g. W(R, LHb5); microsomal fractions
# T1 sequence (P04798 1-512): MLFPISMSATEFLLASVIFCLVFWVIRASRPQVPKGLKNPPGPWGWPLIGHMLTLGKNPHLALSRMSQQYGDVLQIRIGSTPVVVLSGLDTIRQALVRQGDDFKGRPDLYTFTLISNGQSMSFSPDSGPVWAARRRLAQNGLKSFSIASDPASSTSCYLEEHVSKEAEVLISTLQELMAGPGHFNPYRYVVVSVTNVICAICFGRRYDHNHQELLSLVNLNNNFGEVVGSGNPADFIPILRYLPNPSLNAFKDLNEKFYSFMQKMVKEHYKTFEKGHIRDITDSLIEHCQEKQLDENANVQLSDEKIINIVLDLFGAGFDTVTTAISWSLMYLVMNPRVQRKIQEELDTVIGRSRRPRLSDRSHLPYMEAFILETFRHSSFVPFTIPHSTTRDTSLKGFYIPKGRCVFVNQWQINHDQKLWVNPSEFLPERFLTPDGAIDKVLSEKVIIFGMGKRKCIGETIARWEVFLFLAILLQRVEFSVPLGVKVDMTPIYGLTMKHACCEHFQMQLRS
# Assays:
# W(Ghr, ΔB) clones = assay: resistance of yeast clones to ketoconazole; format: cell-based, S. cerevisiae; conditions: three W(Ghr, ΔB) clones, human reductase under GAPDH promoter
# Method: The second selection: the resistance of the W(Ghr, ΔB) clones to ketoconazole was evaluated (Patent No. WO94/01564) in order to verify the activity of the human reductase expressed under the control of the GAPDH promoter. Three different clones are resistant to 20 mg of ketoconazole/ml, while the W(hR) strain, in which the human reductase is expressed under the control of the GAL10-CYC1 promoter, is only resistant to from 1 to 5 mg/ml under the same conditions.
# P450 cytochrome 1A1 = target: T1, P450 cytochrome 1A1; assay: EROD activity test on microsomes (O-deethylation of 7-ethoxyresorufin); format: biochemical; conditions: microsomes of strain W(R, LHb5), rabbit cytochrome b5 added
# Method: The P450 cytochrome 1A1 catalyses the O-deethylation of 7-ethoxyresorufin. The product of the reaction, i.e. resorufin (7-hydroxyphenoxazine), fluoresces at 586 nm after excitation at 530 nm. The quantity of resorufin formed per unit time corresponds to the rate of resorufin accumulation.
# The incubation mixture comprises:
# 2 μl of a microsomal suspension (between 20 and 50 μg of microsomal protein) in 1 ml of pH 7.4 TE buffer containing 50 μM NADPH and 2.5 μM 7-ethoxyresorufin. In order to determin the effect of rabbit cytochrome b5 on catalytic efficacy, the microsomal fractions are subjected to prior incubation in the cold in the presence of an excess of purified cytochrome.
Molecule,"ketoconazole concentration to which the clones are resistant (W(Ghr, ΔB) clones)",turnover (P450 cytochrome 1A1)
CC(=O)N1CCN(c2ccc(OCC3COC(Cn4ccnc4)(c4ccc(Cl)cc4Cl)O3)cc2)CC1 (centres unmarked) [ketoconazole],20 mg/mL,
"rabbit cytochrome b5: purified rabbit cytochrome b5 added in excess to microsomal fractions (protein, UniProt P00169 2-134, looked up) Cytochrome b5: AAQSDKDVKYYTLEEIKKHNHSKSTWLILHHKVYDLTKFLEEHPGGEEVLREQAGGDATENFEDVGHSTDARELSKTFIIGELHPDDRSKLSKPMETLITTVDSNSSWWTNWVIPAISALIVALMYRLYMADD",,27 pmol of metabolite/pmol of cytochrome P450 per min
